Patent US7700782B2, “Compounds 569” (AstraZeneca AB, priority 2007, dated 2010)
Counter-ions that a name gives are not always drawn.

Molecular target: T1, Adrenergic β2 (Homo sapiens, UniProt P07550)
T1 construct: Adherent H292 cells were removed from tissue culture flasks; endogenous in cells; host or cells: H292 cells
Experiment: Adrenergic β2 mediated cAMP production in H292 cells (AlphaScreen cAMP detection)
Assay type: cell-based
Details: Intrinsic Activity, fraction relative to the maximum activity determined for formoterol
Summary of the method: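 H292 cells, 5000/well, preincubated 10 min with rolipram (final 300 μM, 1.6% DMSO) in HEPES pH 7.4 HBSS, then compound 60 min at room temperature. Lysate cAMP quantified by AlphaScreen against a cAMP standard curve. pEC50 and intrinsic activity (fraction of formoterol maximum) from four-parameter logistic fits.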

T1 sequence (P07550 whole entry): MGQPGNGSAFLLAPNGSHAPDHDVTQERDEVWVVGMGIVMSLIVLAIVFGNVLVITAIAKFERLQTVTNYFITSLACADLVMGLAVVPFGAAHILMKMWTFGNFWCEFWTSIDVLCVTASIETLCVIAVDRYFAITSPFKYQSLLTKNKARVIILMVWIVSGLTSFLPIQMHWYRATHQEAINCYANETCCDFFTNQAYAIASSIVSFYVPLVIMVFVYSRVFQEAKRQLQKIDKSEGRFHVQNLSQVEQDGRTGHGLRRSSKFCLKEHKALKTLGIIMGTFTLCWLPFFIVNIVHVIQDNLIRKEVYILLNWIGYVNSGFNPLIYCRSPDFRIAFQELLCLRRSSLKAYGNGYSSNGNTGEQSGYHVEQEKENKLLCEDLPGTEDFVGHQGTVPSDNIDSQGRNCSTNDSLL

| SMILES | β2 Int Act |
| --- | --- |
| O=C(CCNCCc1ccc(F)cc1Cl)N(CCNCCc1ccc(O)c2[nH]c(=O)sc12)C1CCCCCC1 [Example 57, N^3-[2-(2-Chloro-4-fluorophenyl)ethyl]-N^1-cycloheptyl-N^1-(2-{[2-(4-hydroxy-2-oxo-2,3-dihydro-1,3-benzothiazol-7-yl)ethyl]amino}ethyl)-β-alaninamide bis-trifluoroacetic acid salt] | 0.72 |
| CCCC(CCC)N(CCNCCc1ccc(O)c2[nH]c(=O)sc12)C(=O)CCNCCc1cccc(F)c1 [Example 63, N^3-[2-(3-Fluorophenyl)ethyl]-N^1-(2-{[2-(4-hydroxy-2-oxo-2,3-dihydro-1,3-benzothiazol-7-yl)ethyl]amino}ethyl)-N^1-(1-propylbutyl)-β-alaninamide bis-trifluoroacetic acid salt] | 0.93 |
| CC(C)(CNCCC(=O)N(CCNCCc1ccc(O)c2[nH]c(=O)sc12)C1CCCCC1)c1ccccc1 [Example 21, N-Cyclohexyl-N-(2-{[2-(4-hydroxy-2-oxo-2,3-dihydro-1,3-benzothiazol-7-yl)ethyl]amino}ethyl)-N^3-(2-methyl-2-phenylpropyl)-β-alaninamide bis-trifluoroacetic acid salt] | 0.85 |
| C[C@H](CNCCC(=O)N(CCNCCc1ccc(O)c2[nH]c(=O)sc12)CC(C)(C)C)c1ccccc1 [Example 11, N-(2,2-Dimethylpropyl)-N-(2-{[2-(4-hydroxy-2-oxo-2,3-dihydro-1,3-benzothiazol-7-yl)ethyl]amino}ethyl)-N^3-[(2S)-2-phenylpropyl]-β-alaninamide bis-trifluoroacetic acid salt] | 0.84 |
| O=C(CCNCCc1cc(F)cc(F)c1)N(CCNCCc1ccc(O)c2[nH]c(=O)sc12)C1CCCCCC1 [Example 58, N^1-Cycloheptyl-N^3-[2-(3,5-difluorophenyl)ethyl]-N^1-(2-{[2-(4-hydroxy-2-oxo-2,3-dihydro-1,3-benzothiazol-7-yl)ethyl]amino}ethyl)-β-alaninamide bis-trifluoroacetic acid salt] | 0.84 |
| CC(C)(C)CN(CCNCCc1ccc(O)c2[nH]c(=O)sc12)C(=O)CCNCCc1ccccc1 [Example 6, N-(2,2-Dimethylpropyl)-N-(2-{[2-(4-hydroxy-2-oxo-2,3-dihydro-1,3-benzothiazol-7-yl)ethyl]amino}ethyl)-N^3-(2-phenylethyl)-β-alaninamide bis-trifluoroacetic acid salt] | 0.89 |
| Cc1cccc(CCNCCC(=O)N(CCNCCc2ccc(O)c3[nH]c(=O)sc23)CC(C)(C)C)c1 [Example 10, N-(2,2-Dimethylpropyl)-N-(2-{[2-(4-hydroxy-2-oxo-2,3-dihydro-1,3-benzothiazol-7-yl)ethyl]amino}ethyl)-N^3-[2-(3-methylphenyl)ethyl]-β-alaninamide bis-trifluoroacetic acid salt] | 0.69 |
| O=C(CCNCCc1ccc(F)cc1F)N(CCNCCc1ccc(O)c2[nH]c(=O)sc12)C1CCCCCC1 [Example 55, N^1-Cycloheptyl-N^3-[2-(2,4-difluorophenyl)ethyl]-N^1-(2-{[2-(4-hydroxy-2-oxo-2,3-dihydro-1,3-benzothiazol-7-yl)ethyl]amino}ethyl)-β-alaninamide bis-trifluoroacetic acid salt] | 0.81 |
| O=C(CCNCCc1ccc(Cl)cc1)N(CCNCCc1ccc(O)c2[nH]c(=O)sc12)C1CCCC1 [Example 28, N^3-[2-(4-Chlorophenyl)ethyl]-N-cyclopentyl-N-(2-{[2-(4-hydroxy-2-oxo-2,3-dihydro-1,3-benzothiazol-7-yl)ethyl]amino}ethyl)-β-alaninamide bis-trifluoroacetic acid salt] | 0.87 |

Continued, values first:

| β2 Int Act | SMILES |
| --- | --- |
| 0.86 | O=C(CCNCCC(F)(F)F)N(CCNCCc1ccc(O)c2[nH]c(=O)sc12)C1CCCCC1 [Example 80, N^1-Cyclohexyl-N^1-(2-{[2-(4-hydroxy-2-oxo-2,3-dihydro-1,3-benzothiazol-7-yl)ethyl]amino}ethyl)-N^3-(3,3,3-trifluoropropyl)-β-alaninamide bis-trifluoroacetic acid salt] |
| 0.92 | C[C@H](CNCCC(=O)N(CCNCCc1ccc(O)c2[nH]c(=O)sc12)C1CCCC1)c1ccccc1 [Example 31, N-cyclopentyl-N-(2-{[2-(4-hydroxy-2-oxo-2,3-dihydro-1,3-benzothiazol-7-yl)ethyl]amino}ethyl)-N^3-[(2S)-2-phenylpropyl]-β-alaninamide bis-trifluoroacetic acid salt] |
| 0.79 | O=C(CCNC[C@@H](O)c1ccccc1)N(CCNCCc1ccc(O)c2[nH]c(=O)sc12)C1CCCCC1 [Example 74, N^1-Cyclohexyl-N^1-(2-{[2-(4-hydroxy-2-oxo-2,3-dihydro-1,3-benzothiazol-7-yl)ethyl]amino}ethyl)-N^3-[(2S)-2-hydroxy-2-phenylethyl]-β-alaninamide bis-trifluoroacetic acid salt] |
| 0.65 | Cc1cccc(CCNCCC(=O)N(CCNCCc2ccc(O)c3[nH]c(=O)sc23)C2CCCCCC2)c1 [Example 85, N^1-Cycloheptyl-N^1-(2-{[2-(4-hydroxy-2-oxo-2,3-dihydro-1,3-benzothiazol-7-yl)ethyl]amino}ethyl)-N^3-[2-(3-methylphenyl)ethyl]-β-alaninamide bis-trifluoroacetic acid salt] |
| 0.78 | CC(C)N(CCNCCc1ccc(O)c2[nH]c(=O)sc12)C(=O)CCNCCc1ccccc1 [Example 1, N-(2-{[2-(4-Hydroxy-2-oxo-2,3-dihydro-1,3-benzothiazol-7-yl)ethyl]amino}ethyl)-N-isopropyl-N^3-(2-phenylethyl)-β-alaninamide bis-trifluoroacetic acid salt] |
| 0.96 | O=C(CCNCCc1cccc(Cl)c1)N(CCNCCc1ccc(O)c2[nH]c(=O)sc12)C1CCCC1 [Example 30, N^3-[2-(3-Chlorophenyl)ethyl]-N-cyclopentyl-N-(2-{[2-(4-hydroxy-2-oxo-2,3-dihydro-1,3-benzothiazol-7-yl)ethyl]amino}ethyl)-β-alaninamide bis-trifluoroacetic acid salt] |
| 0.67 | CC(C)(CNCCC(=O)N(CCNCCc1ccc(O)c2[nH]c(=O)sc12)C1CCCC1)c1ccccc1 [Example 32, N-cyclopentyl-N-(2-{[2-(4-hydroxy-2-oxo-2,3-dihydro-1,3-benzothiazol-7-yl)ethyl]amino}ethyl)-N^3-(2-methyl-2-phenylpropyl)-β-alaninamide bis-trifluoroacetic acid salt] |
